Assay [1] deals with SW1736 cells (SW-EV, SW-TRβ). In words: RNA-seq gene expression in SW-EV and SW-TRβ. The format is cell-based, human. On the procedure: RNA-seq Library Construction and Quality Control. 80% confluent monolayers of SW-EV and SW-TRβ cells were hormone starved for 24 hours in phenol red free RPMI with charcoal-stripped fetal bovine serum. 10^−8M T3 was added and incubated for 24 hours prior to sample collection. Total RNA was extracted and purified using RNeasy Plus Kit (Qiagen) according to manufacturer's protocol. Purity of the total RNA samples was assessed via BioAnalyzer (Agilent) and samples with a RIN score >7 were used for library construction. rRNA was depleted using 1 μg of total RNA with the RiboErase kit (KAPA Biosystems). Strand-specific Illumina cDNA libraries were prepared using the KAPA Stranded RNA-Seq library preparation kit with 10 cycles of PCR (KAPA Biosystems). Library quality was assessed by BioAnalyzer (Agilent) to ensure an average library size of 300 bp and the absence of excess adaptors in each sample. RNA-Seq libraries were pooled and sequenced on the Illumina HiSeq 1500 with 50 bp single-end reads. Quality scores across sequenced reads were assessed using FASTQC. […] For alignment and transcript assembly, the sequencing reads were mapped to hg38 using STAR. Sorted reads were counted using HTSeq and differential expression analysis was performed using DESeq2.

For assay [2], the system named is interferon/JAK1/STAT1 pathway. Briefly: Interferon/JAK1/STAT1 pathway expression (immunoblot, qPCR). The assay is classed as cell-based, human. The settings on record: SW-TRβ. As for the experimental part:
Immunoblot Analysis. Proteins were isolated from whole cells in lysis buffer (20 mM Tris-HCl [pH 8], 137 mM NaCl, 10% glycerol, 1% Triton X-100, and 2 mM EDTA) containing Protease Inhibitor Cocktail 78410 (Thermo Scientific). Proteins were resolved by polyacrylamide gel electrophoresis on 10% sodium dodecyl sulfate gels EC60752 (Life Technologies) and immobilized onto nitrocellulose membranes (GE Healthcare) by electroblot (Bio-Rad Laboratories). Specific proteins were detected by immunoblotting with the indicated antibodies (Table 4); immunoreactive proteins were detected by enhanced chemiluminescence (Thermo Scientific) on a ChemiDoc XRS+ (Bio-Rad Laboratories). RNA Extraction and Quantitative Real-Time PCR (qRT-PCR). Total RNA was extracted using RNeasy Plus Kit (Qiagen) according to manufacturer's protocol. cDNA was then generated using the 5×RT Mastermix (ABM). Gene expression to validate RNASeq analysis was quantified by qRT-PCR using 2×SuperGreen Mastermix (ABM) on a QuantStudio 3 real-time PCR system (Applied Biosystems). Fold change in gene expression compared to endogenous controls was calculated using the ddCT method.
A general note: A western blot detects proteins with antibodies after separation by electrophoresis.

Structures are written as SMILES.

For `N[C@@H](Cc1cc(I)c(Oc2ccc(O)c(I)c2)c(I)c1)C(=O)O` [T3, (2S)-2-amino-3-[4-(4-hydroxy-3-iodophenoxy)-3,5-diiodophenyl]propanoic acid], in assay [1] (SW1736-TRβ, T3 treated), the “expression of epithelial marker CDH1” value is listed as “increased expression” and the “expression of mesenchymal marker VIM” value was “decreased”. Further, the “expression of cluster 1 genes in the ILK signaling IPA pathway” value in assay [1] (SW-EV and SW-TRβ, T3) is “repressed”. In assay [1] (SW-TRβ, T3 treated), the thyroid differentiation markers result is recorded as “significantly induced” and the “thyroid differentiation score (TDS)” value is “significantly higher TDS”. Moreover, in assay [1] (TRβ overexpression and T3, RNA-seq), the “expression of thyroid-specific cancer stem cell genes ALDH, POU5F1, CD44, FUT4, PROM1” value was “significantly reduced expression of the thyroid-specific cancer stem cell genes”. Also, in assay [2] (T3), the “expression of IRF1 target genes APOL6 and TNFSF10 (qPCR)” value was “Induction of IRF1 target genes APOL6 and TNFSF10”; the “expression of STAT1 target genes IRF1 and TAP1 (qPCR)” value is “increased the expression of STAT1 target genes IRF1 and TAP1”. Moreover, the “expression of JAK1 and STAT1” value in assay [2] (T3 treatment) was “significantly increased”.
